Where two headings read alike, the source gives them in different places.
Tests used:
G21 (PCFT) [1] = target: T1, G21 (PCFT) (Homo sapiens, UniProt Q96NT5); assay: Inhibition of [3H]folic acid uptake into G21 cRNA-injected Xenopus oocytes; format: cell-based; conditions: 20 μM nonlabeled compound, pH 5.5, 30 min
T1 construct: expressed in transfected cells; host or cells: Xenopus laevis oocytes injected with capped G21 cRNA (pSPT64, SP6)
T1 sequence (Q96NT5 1-459): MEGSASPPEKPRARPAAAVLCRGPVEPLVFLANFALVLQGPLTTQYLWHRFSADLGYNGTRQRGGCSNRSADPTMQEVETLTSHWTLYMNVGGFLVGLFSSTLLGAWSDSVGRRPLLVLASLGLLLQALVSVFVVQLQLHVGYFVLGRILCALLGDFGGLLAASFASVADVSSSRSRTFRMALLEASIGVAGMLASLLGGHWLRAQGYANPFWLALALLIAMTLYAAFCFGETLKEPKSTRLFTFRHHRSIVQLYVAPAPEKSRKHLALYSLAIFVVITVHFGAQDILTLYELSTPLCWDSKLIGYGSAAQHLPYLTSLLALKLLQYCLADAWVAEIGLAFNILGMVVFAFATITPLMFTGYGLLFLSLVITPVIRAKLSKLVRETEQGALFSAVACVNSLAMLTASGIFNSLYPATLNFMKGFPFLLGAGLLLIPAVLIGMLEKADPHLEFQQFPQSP
Method: Uptake studies in Xenopus oocytes. […] Radiotracer uptake was determined 3 or 4 days later. […] Uptake was halted by the addition of ice-cold MBS (pH 7.5). Oocytes were washed 10 times thereafter, and solubilized with 10% SDS for measurement of radioactivity. To collapse the pH gradient across the oocyte membrane, seven to 10 oocytes were incubated in MBS (pH 5.5) containing 0, 10, 20, 40, 60 μM FCCP for 20 min, and uptake of transport substrates assessed at pH 5.5.

G21 (PCFT) [2] = target: T1, G21 (PCFT); assay: Uptake of tritiated folates in G21 cRNA-injected Xenopus oocytes; format: cell-based; conditions: for G21-mediated transport activity: pH 7.5, 2 μM tritiated substrate, 30 min
Method: Uptake studies in Xenopus oocytes. Defolliculated Xenopus laevis oocytes were prepared as described (Jansen and Akabas, 2006) and injected with 50 nl of water or G21 cRNA (30 ng). Radiotracer uptake was determined 3 or 4 days later. Seven to 10 oocytes were incubated in 500 μl of Modified Barth's Solution (MBS, in mM, 88 NaCl, 2.4 NaHCO3, 2.5 Na pyruvate, 1 KCl, 0.82 MgSO4, 0.41 CaCl2, 0.3 Ca(NO3)2, 15 MES or HEPES) and uptake of tritiated folate substrates assessed at room temperature. Uptake was halted by the addition of ice-cold MBS (pH 7.5). Oocytes were washed 10 times thereafter, and solubilized with 10% SDS for measurement of radioactivity. To collapse the pH gradient across the oocyte membrane, seven to 10 oocytes were incubated in MBS (pH 5.5) containing 0, 10, 20, 40, 60 μM FCCP for 20 min, and uptake of transport substrates assessed at pH 5.5.

G21 (PCFT) [3] = target: T1, G21 (PCFT); assay: Two-electrode voltage-clamp electrophysiology in G21 cRNA-injected Xenopus oocytes; format: cell-based; conditions: for Km: read-out: electrophysiologically determined Km
Method: Electrophysiological analyses in Xenopus oocytes. Defolliculated oocytes were injected with 50 nl of water (control) or G21 cRNA (50 ng), and kept at 17° C. in horse serum medium (in mM, 82.5 NaCl, 2.5 KCl, 1 MgCl2, 2.3 CaCl2, 5 HEPES, 5% horse serum, pH 7.5). Electrophysiological recordings were conducted 3-7 days after cRNA injection in buffer (in mM, 90 NaCl, 1 KCl, 1 MgCl2, 1.8 CaCl2, 5 TRIS, 5 MES) as described previously (Jansen and Akabas, 2006). Oocyte holding potential was −80 mV for Km determination. For current-voltage (I-V) relationships, from a −60 mV holding potential step changes in membrane potential were applied for 2 s in 10 mV increments between −100 and 30 mV in the absence and presence of substrate.

PCFT = assay: [3H](6S)5-methylTHF uptake in HeLa cells transiently transfected with mutated PCFT cDNA; format: cell-based, human; conditions: pH 5.5, 37° C., 2 min; for residual transport activity as compared to the wild-type transporter: 0.5 μM [3H](6S)5-methylTHF, mock background subtracted
From the text: Analysis of G21 in a family with hereditary folate malabsorption. Members of a family with hereditary folate malabsorption were studied according to a protocol and Informed Consent in the subjects' native language approved by the Albert Einstein College of Medicine IRB (CCI#2006-279). Whole blood was used for isolation of genomic DNA by a Genomic DNA Purification Kit (Gentra Systems, Minneapolis, Minn.) and to generate EBV-transformed human B-lymphoblastoid cell lines in the Einstein Human Genetics Cell Culture Core. Each G21 exon with flanking regions was amplified using Taq DNA polymerase, Q-solution (Qiagen, Valencia, Calif.) and primers listed in Table 4. G21 or RFC cDNA were amplified from lymphoblastoid cells by RT-PCR. PCR products were gel-purified and sequenced in an ABI 3730 DNA Analyzer (Applied Biosystems). The mutated region was verified by sequencing both DNA strands. An expression vector of the mutated G21 in which exon 3 was skipped (GenBank accession number: BC010691) was purchased from Open Biosystems and, along with pcDNA3.1(+)G21 (wild type), was used for an assay of transport function. Western blot analysis on whole cell lysate and cellular localization was performed as described above.
Site-directed mutagenesis. PCFT cDNA was cloned in pCDNA 3.1 (+) and mutations in the coding region were introduced by site-directed mutagenesis using PfuTurbo® DNA polymerase (Stratagene, La Jolla, Calif.) as described previously (Zhao et al., 2000). The entire PCFT coding region in the plasmid was sequenced to verify the presence of the mutation.
Transient transfections and assessment of 5-methylTHF transport. Plasmid concentrations were determined by UV absorption and verified by agarose gel analysis. HeLa cells were seeded and transiently transfected in 20 ml glass scintillation vials (Research Products International Corp., Mt. Prospect, Ill.) and after two days, [^3H]5-methylTHF uptake was assessed (Qiu et al., 2006). EBV-transformed B-lymphoblastoid cells, generated from blood (P6 and P7), were washed twice with, and resuspended in, unbuffered saline (160 mM NaCl, 5 mM KCl, 2 mM MgCl2, 5 mM glucose). Uptake was initiated by injection of the cell suspension into MES-buffered saline (pH 5.5) containing 0.5 μM [^3H]5-methylTHF. Surface binding was assessed by measuring [^3H]5-methylTHF associated with cells at 0° C. and the bound component was subtracted from total uptake.

[4] = changing the pH from 5.5 to 6.5
[5] = increasing the pH from 6.5 to 7.5
[6] = 10 μM FCCP, 20 min pre-incubation, extracellular pH 5.5, 2 μM substrate

Nc1nc2c(c(=O)[nH]1)N(C=O)[C@@H](CNc1ccc(C(=O)N[C@@H](CCC(=O)O)C(=O)O)cc1)CN2 [(6S)5-FTHF, (6S)5-formyltetrahydrofolate]
inhibitory effect on uptake of 2 μM [3H]folic acid (G21 (PCFT) [1]): more potent than the unnatural 6R isomer
G21-mediated transport activity (G21 (PCFT) [2]): residual activity

CN1c2c(nc(N)[nH]c2=O)NC[C@@H]1CNc1ccc(C(=O)N[C@@H](CCC(=O)O)C(=O)O)cc1 [(6S)5-MTHF, (6S)5-methyltetrahydrofolate]
inhibitory effect on uptake of 2 μM [3H]folic acid (G21 (PCFT) [1]): comparable to those of (6S)5-FTHF
G21-mediated transport activity (G21 (PCFT) [2]): residual activity
shift of reversal potential (G21 (PCFT) [3]; [4]): −6 mV
shift of reversal potential (G21 (PCFT) [3]; [5]): −30 mV
Km (G21 (PCFT) [3]; pH 5.5, holding potential −80 mV): 0.53 ± 0.04 µM
Km (G21 (PCFT) [3]; pH 6.5, holding potential −80 mV): 0.78 ± 0.14 µM

O=C1OC(c2ccc(O)c(S(=O)(=O)O)c2)(c2ccc(O)c(S(=O)(=O)O)c2)c2c(Br)c(Br)c(Br)c(Br)c21 [Bromosulphopthalein]
inhibitory effect on uptake of 2 μM [3H]folic acid (G21 (PCFT) [1]): did not inhibit

N#CC(C#N)=NNc1ccc(OC(F)(F)F)cc1 [FCCP, carbonyl cyanide 4-(trifluoromethoxy) phenylhydrazone]
effect on [3H]MTX uptake (G21 (PCFT) [2]; [6]): markedly decreased
effect on [3H]folic acid uptake (G21 (PCFT) [2]; [6]): markedly decreased

CN(Cc1cnc2nc(N)nc(N)c2n1)c1ccc(C(=O)N[C@@H](CCC(=O)O)C(=O)O)cc1 [MTX, methotrexate]
inhibitory effect on uptake of 2 μM [3H]folic acid (G21 (PCFT) [1]): less effective competitor than folic acid
shift of reversal potential (G21 (PCFT) [3]; [4]): −8 mV
shift of reversal potential (G21 (PCFT) [3]; [5]): −36 mV
lowest concentration at which current was detected (G21 (PCFT) [3]; pH 5.5, Vh −80 mV): 0.1 µM
current amplitude larger than (6S)5-MTHF-induced current (G21 (PCFT) [3]; saturating concentrations, same oocyte, pH 5.5): 86±11%

C[C@H](CCC(=O)O)[C@H]1CC[C@H]2[C@@H]3[C@H](O)C[C@@H]4C[C@H](O)CC[C@]4(C)[C@H]3C[C@H](O)[C@]12C [cholic acid]
inhibitory effect on uptake of 2 μM [3H]folic acid (G21 (PCFT) [1]): did not inhibit

C[C@]12CC[C@@H]3c4ccc(OS(=O)(=O)O)cc4CC[C@H]3[C@@H]1CCC2=O [estrone-3-sulfate]
inhibitory effect on uptake of 2 μM [3H]folic acid (G21 (PCFT) [1]): did not inhibit

Nc1ccc(C(=O)NCC(=O)O)cc1 [para-aminohippuric acid]
inhibitory effect on uptake of 2 μM [3H]folic acid (G21 (PCFT) [1]): did not inhibit

Nc1nc2[nH]cc(CCc3ccc(C(=O)N[C@@H](CCC(=O)O)C(=O)O)cc3)c2c(=O)[nH]1 [pemetrexed]
inhibitory effect on uptake of 2 μM [3H]folic acid (G21 (PCFT) [1]): most potent competitor

C[C@H](CCC(=O)NCCS(=O)(=O)O)[C@H]1CC[C@H]2[C@@H]3[C@H](O)C[C@@H]4C[C@H](O)CC[C@]4(C)[C@H]3C[C@H](O)[C@]12C [taurocholic acid]
inhibitory effect on uptake of 2 μM [3H]folic acid (G21 (PCFT) [1]): did not inhibit

B1: G147R: human PCFT mutant protein (protein, UniProt Q96NT5 1-459, looked up, variant G147R)
Proton-coupled folate …: MEGSASPPEKPRARPAAAVLCRGPVEPLVFLANFALVLQGPLTTQYLWHRFSADLGYNGTRQRGGCSNRSADPTMQEVETLTSHWTLYMNVGGFLVGLFSSTLLGAWSDSVGRRPLLVLASLGLLLQALVSVFVVQLQLHVGYFVLRRILCALLGDFGGLLAASFASVADVSSSRSRTFRMALLEASIGVAGMLASLLGGHWLRAQGYANPFWLALALLIAMTLYAAFCFGETLKEPKSTRLFTFRHHRSIVQLYVAPAPEKSRKHLALYSLAIFVVITVHFGAQDILTLYELSTPLCWDSKLIGYGSAAQHLPYLTSLLALKLLQYCLADAWVAEIGLAFNILGMVVFAFATITPLMFTGYGLLFLSLVITPVIRAKLSKLVRETEQGALFSAVACVNSLAMLTASGIFNSLYPATLNFMKGFPFLLGAGLLLIPAVLIGMLEKADPHLEFQQFPQSP
residual transport activity as compared to the wild-type transporter (PCFT): 7.0%

B2: R113S: human PCFT mutant protein (protein, UniProt Q96NT5 1-459, looked up, variant R113S)
Proton-coupled folate …: MEGSASPPEKPRARPAAAVLCRGPVEPLVFLANFALVLQGPLTTQYLWHRFSADLGYNGTRQRGGCSNRSADPTMQEVETLTSHWTLYMNVGGFLVGLFSSTLLGAWSDSVGSRPLLVLASLGLLLQALVSVFVVQLQLHVGYFVLGRILCALLGDFGGLLAASFASVADVSSSRSRTFRMALLEASIGVAGMLASLLGGHWLRAQGYANPFWLALALLIAMTLYAAFCFGETLKEPKSTRLFTFRHHRSIVQLYVAPAPEKSRKHLALYSLAIFVVITVHFGAQDILTLYELSTPLCWDSKLIGYGSAAQHLPYLTSLLALKLLQYCLADAWVAEIGLAFNILGMVVFAFATITPLMFTGYGLLFLSLVITPVIRAKLSKLVRETEQGALFSAVACVNSLAMLTASGIFNSLYPATLNFMKGFPFLLGAGLLLIPAVLIGMLEKADPHLEFQQFPQSP
[3H](6S)5-methylTHF uptake (transport function) (PCFT; 0.5 μM, transiently transfected HeLa cells): essentially no uptake

B3: P425R: human PCFT mutant protein (protein, UniProt Q96NT5 1-459, looked up, variant P425R)
Proton-coupled folate …: MEGSASPPEKPRARPAAAVLCRGPVEPLVFLANFALVLQGPLTTQYLWHRFSADLGYNGTRQRGGCSNRSADPTMQEVETLTSHWTLYMNVGGFLVGLFSSTLLGAWSDSVGRRPLLVLASLGLLLQALVSVFVVQLQLHVGYFVLGRILCALLGDFGGLLAASFASVADVSSSRSRTFRMALLEASIGVAGMLASLLGGHWLRAQGYANPFWLALALLIAMTLYAAFCFGETLKEPKSTRLFTFRHHRSIVQLYVAPAPEKSRKHLALYSLAIFVVITVHFGAQDILTLYELSTPLCWDSKLIGYGSAAQHLPYLTSLLALKLLQYCLADAWVAEIGLAFNILGMVVFAFATITPLMFTGYGLLFLSLVITPVIRAKLSKLVRETEQGALFSAVACVNSLAMLTASGIFNSLYPATLNFMKGFRFLLGAGLLLIPAVLIGMLEKADPHLEFQQFPQSP
residual transport activity as compared to the wild-type transporter (PCFT): 3.4%

— US7888025B2, “Intestinal folate transporter method” (Albert Einstein College of Medicine of Yeshiva University, priority 2007, dated 2011)
